Experimental data published in PubChem BioAssay AID330 (DTP/NCI, 2004).
“And” between values parts separate entries of the source, which are not always exact repeats. Identical values can stand only once. Inconclusive results and toxic doses are left out.

Tested on: P388 leukemia ip, CD2F1 mice, survival T/C
Test: NCI In Vivo Anticancer Drug Screen. Data for tumor model P388 Leukemia (intraperitoneal) in CD2F1 (CDF1) mice
Settings: endpoint: median survival time, higher = longer survival
In short: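 Mice carrying the transplanted tumor received test compound or vehicle. Survival was recorded in each group, and the value is the treated-group measurement divided by that of the vehicle-treated control group.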

[1] = dose: 60.0 mg/kg/injection, schedule: Q01DX005 (ip), vehicle: saline with Tween-80
[2] = dose: 120.0 mg/kg/injection, schedule: Q01DX005 (ip), vehicle: saline with Tween-80
[3] = dose: 240.0 mg/kg/injection, schedule: Q01DX005 (ip), vehicle: saline with Tween-80
[4] = dose: 50.0 mg/kg/injection, schedule: Q01DX009 (ip), vehicle: saline
[5] = dose: 100.0 mg/kg/injection, schedule: Q01DX009 (ip), vehicle: saline
[6] = dose: 200.0 mg/kg/injection, schedule: Q01DX009 (ip), vehicle: saline
[7] = dose: 25.0 mg/kg/injection, schedule: Q01DX009 (ip), vehicle: saline with Tween-80
[8] = dose: 50.0 mg/kg/injection, schedule: Q01DX009 (ip), vehicle: saline with Tween-80
[9] = dose: 100.0 mg/kg/injection, schedule: Q01DX009 (ip), vehicle: saline with Tween-80
[10] = dose: 50.0 mg/kg/injection, schedule: Q01DX005 (ip), vehicle: Klucel (hydroxypropylcellulose) (HPC)
[11] = dose: 200.0 mg/kg/injection, schedule: Q01DX009 (ip), vehicle: saline with Tween-80
[12] = dose: 12.5 mg/kg/injection, schedule: Q01DX005 (ip), vehicle: Klucel (hydroxypropylcellulose) (HPC)
[13] = dose: 25.0 mg/kg/injection, schedule: Q01DX005 (ip), vehicle: Klucel (hydroxypropylcellulose) (HPC)

## COc1cc(OC)c(C2CC(C)(O)Oc3cc4c(cc32)OCO4)c(OC)c1 (stereo unspecified)
[1]
  T/C: 91 % of control
[2]
  T/C: 86 % of control
[3]
  T/C: 88 % of control

## [CH3][Sb]([CH3])([CH3])([CH3])[I]
[4]
  T/C: 98 % of control
[5]
  T/C: 100 % of control
[6]
  T/C: 95 % of control

## Clc1ccccc1N1CCN(CCCN2CCN(c3ccccc3Cl)CC2)CC1
[7]
  T/C: 97 % of control
[8]
  T/C: 94 % of control
[9]
  T/C: 100 % of control

## CCCCCCCCCCCCCCCCCCOS(=O)(=O)O (tested in a mixture with another compound)
[4]
  T/C: 102 % of control
[5]
  T/C: 104 % of control
[6]
  T/C: 104 % of control

## c1ccc(-c2nnc3nn4c(-c5ccccc5)cnnc4c3c2-c2ccccc2)cc1
[10]
  T/C: 93 % of control
dose: 100.0 mg/kg/injection, schedule: Q01DX005 (ip), vehicle: Klucel (hydroxypropylcellulose) (HPC)
  T/C: 91 % of control
dose: 200.0 mg/kg/injection, schedule: Q01DX005 (ip), vehicle: Klucel (hydroxypropylcellulose) (HPC)
  T/C: 90 % of control

## [I][Hg][CH2]C1COCC([CH2][Hg][I])O1.[I][Hg][CH2]C1COCC([CH2][Hg][I])O1 (stereo unspecified)
dose: 3.13 mg/kg/injection, schedule: Q01DX009 (ip), vehicle: saline with Tween-80
  T/C: 109 % of control
dose: 3.13 mg/kg/injection, schedule: Q04DX003 (ip), vehicle: saline with Tween-80
  T/C: 109 % of control
dose: 6.25 mg/kg/injection, schedule: Q01DX009 (ip), vehicle: saline with Tween-80
  T/C: 113 % of control
dose: 6.25 mg/kg/injection, schedule: Q04DX003 (ip), vehicle: saline with Tween-80
  T/C: 86 % of control
dose: 12.5 mg/kg/injection, schedule: Q01DX009 (ip), vehicle: saline with Tween-80
  T/C: 118 % of control
dose: 12.5 mg/kg/injection, schedule: Q04DX003 (ip), vehicle: saline with Tween-80
  T/C: 100 % of control

## Cc1ccc(N=CNN(C)S(=O)(=O)c2ccc(C)cc2)cc1
dose: 60.0 mg/kg/injection, schedule: Q01DX005 (ip), vehicle: Klucel (hydroxypropylcellulose) (HPC)
  T/C: 92 % of control
dose: 120.0 mg/kg/injection, schedule: Q01DX005 (ip), vehicle: Klucel (hydroxypropylcellulose) (HPC)
  T/C: 108 % of control
dose: 240.0 mg/kg/injection, schedule: Q01DX005 (ip), vehicle: Klucel (hydroxypropylcellulose) (HPC)
  T/C: 90 % of control

## COc1ccc(C(=O)Cc2nc3nnc(NC(=O)Nc4ccc(Cl)cc4)n3[nH]c2=O)cc1
[1]
  T/C: 99 % of control
[2]
  T/C: 99 % of control
[3]
  T/C: 100 % of control

## O=C(O)c1cc(O)c(O)c(O)c1
dose: 14.0 mg/kg/injection, schedule: Q01DX009 (ip), vehicle: saline
  T/C: 105 % of control
dose: 22.0 mg/kg/injection, schedule: Q01DX009 (ip), vehicle: saline
  T/C: 100 % of control
dose: 35.0 mg/kg/injection, schedule: Q01DX009 (ip), vehicle: saline
  T/C: 95 % of control
[4]
  T/C: 103 % of control and 97 % of control
[5]
  T/C: 100 % of control and 101 % of control
dose: 100.0 mg/kg/injection, schedule: Q01DX009 (ip), vehicle: water
  T/C: 95 % of control
dose: 100.0 mg/kg/injection, schedule: Q04DX003 (ip), vehicle: Klucel (hydroxypropylcellulose) (HPC)
  T/C: 100 % of control
[6]
  T/C: 118 % of control and 96 % of control
dose: 200.0 mg/kg/injection, schedule: Q01DX009 (ip), vehicle: water
  T/C: 95 % of control
dose: 200.0 mg/kg/injection, schedule: Q04DX003 (ip), vehicle: Klucel (hydroxypropylcellulose) (HPC)
  T/C: 100 % of control
dose: 400.0 mg/kg/injection, schedule: Q01DX009 (ip), vehicle: saline
  T/C: 106 % of control and 111 % of control
dose: 400.0 mg/kg/injection, schedule: Q01DX009 (ip), vehicle: water
  T/C: 100 % of control
dose: 400.0 mg/kg/injection, schedule: Q04DX003 (ip), vehicle: Klucel (hydroxypropylcellulose) (HPC)
  T/C: 95 % of control
dose: 600.0 mg/kg/injection, schedule: Q01DX009 (ip), vehicle: saline
  T/C: 110 % of control and 111 % of control

## O=C(O)c1c[nH]c2ccc([N+](=O)[O-])cc2c1=O
dose: 0.63 mg/kg/injection, schedule: Q01DX009 (ip), vehicle: Klucel (hydroxypropylcellulose) (HPC)
  T/C: 110 % of control
dose: 1.25 mg/kg/injection, schedule: Q01DX009 (ip), vehicle: Klucel (hydroxypropylcellulose) (HPC)
  T/C: 94 % of control
dose: 2.5 mg/kg/injection, schedule: Q01DX009 (ip), vehicle: Klucel (hydroxypropylcellulose) (HPC)
  T/C: 101 % of control
dose: 5.0 mg/kg/injection, schedule: Q01DX009 (ip), vehicle: Klucel (hydroxypropylcellulose) (HPC)
  T/C: 104 % of control
dose: 10.0 mg/kg/injection, schedule: Q01DX009 (ip), vehicle: Klucel (hydroxypropylcellulose) (HPC)
  T/C: 100 % of control
dose: 90.0 mg/kg/injection, schedule: Q01DX009 (ip), vehicle: Klucel (hydroxypropylcellulose) (HPC)
  T/C: 86 % of control

## CC(=O)OC1=C2OC(=O)C3(C2C=CC=C1)C1C=CC=CC13 (stereo unspecified)
[8]
  T/C: 97 % of control
[9]
  T/C: 97 % of control
[11]
  T/C: 111 % of control

## CCOc1ccc2ccccc2c1C(Cc1ccccc1)NC (stereo unspecified)
[12]
  T/C: 99 % of control
[13]
  T/C: 93 % of control
[10]
  T/C: 99 % of control and 100 % of control

## CC(=N\N)/C(C)=N/N
[7]
  T/C: 100 % of control
[8]
  T/C: 121 % of control

## CCCCCCCCCCNCCSSCCNC(C)=O
dose: 1.56 mg/kg/injection, schedule: Q01DX005 (ip), vehicle: Klucel (hydroxypropylcellulose) (HPC)
  T/C: 103 % of control
dose: 3.12 mg/kg/injection, schedule: Q01DX005 (ip), vehicle: Klucel (hydroxypropylcellulose) (HPC)
  T/C: 100 % of control
dose: 6.25 mg/kg/injection, schedule: Q01DX005 (ip), vehicle: Klucel (hydroxypropylcellulose) (HPC)
  T/C: 105 % of control
[12]
  T/C: 104 % of control
[13]
  T/C: 102 % of control
[10]
  T/C: 98 % of control and 103 % of control

## NC(=S)N/N=C\c1ccc(/C=N/NC(N)=S)cc1
dose: 100.0 mg/kg/injection, schedule: Q04DX003 (ip), vehicle: saline with Tween-80
  T/C: 91 % of control
dose: 400.0 mg/kg/injection, schedule: Q04DX003 (ip), vehicle: saline with Tween-80
  T/C: 86 % of control

## CCOC(=O)/C=C(/C)Sc1cc(O)ccc1O
[8]
  T/C: 102 % of control
[9]
  T/C: 111 % of control
[11]
  T/C: 109 % of control

## ClCCN(CCCl)CCNc1ccnc2cc(Cl)ccc12
dose: 0.1 mg/kg/injection, schedule: Q01DX009 (ip), vehicle: saline
  T/C: 104 % of control
dose: 0.2 mg/kg/injection, schedule: Q01DX009 (ip), vehicle: saline
  T/C: 90 % of control
dose: 0.38 mg/kg/injection, schedule: Q01DX009 (ip), vehicle: saline
  T/C: 114 % of control
dose: 0.5 mg/kg/injection, schedule: Q01DX009 (ip), vehicle: saline sonified
  T/C: 90 % of control
dose: 0.58 mg/kg/injection, schedule: Q01DX009 (ip), vehicle: saline
  T/C: 114 % of control
dose: 0.88 mg/kg/injection, schedule: Q04DX003 (ip), vehicle: saline
  T/C: 118 % of control
dose: 1.0 mg/kg/injection, schedule: Q01DX009 (ip), vehicle: saline sonified
  T/C: 118 % of control
dose: 2.0 mg/kg/injection, schedule: Q04DX003 (ip), vehicle: saline
  T/C: 118 % of control
dose: 4.4 mg/kg/injection, schedule: Q01DX009 (ip), vehicle: saline
  T/C: 166 % of control

## COc1c(C(C)(C)C)cc(C(C)(C)C)c(OC)c1Br
dose: 50.0 mg/kg/injection, schedule: Q01DX009 (ip), vehicle: Klucel (hydroxypropylcellulose) (HPC)
  T/C: 100 % of control
dose: 100.0 mg/kg/injection, schedule: Q01DX009 (ip), vehicle: Klucel (hydroxypropylcellulose) (HPC)
  T/C: 94 % of control
dose: 200.0 mg/kg/injection, schedule: Q01DX009 (ip), vehicle: Klucel (hydroxypropylcellulose) (HPC)
  T/C: 87 % of control

## O=C(O)c1c(Cl)c(Cl)c(Cl)c(Cl)c1Cl
[9]
  T/C: 95 % of control
[11]
  T/C: 100 % of control
dose: 400.0 mg/kg/injection, schedule: Q01DX009 (ip), vehicle: saline with Tween-80
  T/C: 113 % of control
